Structures can show the parent of a compound that is named as a salt. Where two headings read alike, the source gives them in different places.
Key:
[1] = system: P. aeruginosa (clinical); assay: Electroanalytically determined MIC, gram-negative bacteria; type: cell-based, Pseudomonas aeruginosa
Description: (§1) Identical lots of media and antimicrobial agents were used in the susceptibility tests performed. The media used were trypticase soy agar (TSA) and TSB from Baltimore Biological Laboratories (BBL), Cockeysville, Maryland. The 12 antimicrobial agents used in the experiments, which were chosen on the basis of their clinical usefulness, were laboratory reference standards including the following antibiotics: penicillin G potassium, caphalothin sodium, tobramycin, vancomycin hydrochloride and streptomycin sulfate obtained from Eli Lilly and Co.; tetracycline and carbenicillin obtained from Pfizer Laboratories; ampicillin and sodium nafcillin from Wyeth Laboratories; kanamycin and methicillin from Bristol Laboratories; gentamicin from Schering.
(§2) The following cultures were obtained from Hoffmann-LaRoche, Inc. and were derived from the American Type Culture Collection (ATCC) organisms as indicated: Escherichia coli, "Seattle Strain" ATCC 25922, Klebsiella pneumoniae ATCC 27736; Pseudomonas aeruginosa, ATCC 9721. These bacteria are gram negative bacteria. The following bacteria are gram positive: Staphylococcus aureus, "Seattle Strain" ATCC 25923; Staphylococcus epiderdimis ATCC 14990; and Streptococcus pyogenes, ATCC 10389. In addition, clinical specimens of these same six organisms were obtained from sensitivity isolates from the University of Virginia Hospital Department of Clinical Pathology Bacteriology Section. These organisms, both pathogenic and non-pathogenic (Staphylococcus epidermidis), were chosen because they are some of the most frequently encountered organisms in clinical isolates.
(§3) Inocula were prepared by making a 100-fold dilution×2 of an overnight TSB culture of the organism to be tested in sterile TSB prewarmed to 35° C. Thus, the total dilution of overnight stock was 10^-4. From the 10^-4 series, 0.3 ml was transferred to a test tube (Falcon, disposable #2057) containing 2.7 ml of TSB if the growth control, or 2.6 ml of TSB plus 0.1 ml of a particular concentration of an appropriate antibiotic to be tested. The antibiotic was weighed on an analytical balance, according to each agent's activity standard, and diluted with sterile distilled water in a volumetric flask to achieve a stock solution of 1000 mcg/ml which was then frozen in small aliquots. Further dilutions as necessary for susceptibility testing were also achieved through the addition of sterile distilled water to this stock concentration. Viable counts were made by plating appropriate dilutions from the 10^-4 series on TSA and counting colonies after 24 hours incubation at 35° C. Viable counts were also made on each microorganism at the time of MDC and again at the end of the 24 hour test period to confirm the minimum inhibitory concentration (MIC).
(§4) The experimental apparatus used in this study to monitor the inhibition of growth due to the addition of antibiotics consisted of test tubes, up to and including 8, size 17×100 mm, each containing a sterilized (by boiling) Pt-SCE combination electrode (Sargent-Welch, S-30101-15), plus TSB, microorganisms, and antibiotic where appropriate, positioned in a 35° C. heating block. Leads from the electrode were connected to a high impedance (greater than 10^8 ohms) potentiometer, or voltage following device, which in turn was connected to a strip chart recorder (Hewlett-Packard type 680M). Microbial growth was measured by an increase in voltage in the negative direction with time as recorded on the strip chart recorder.
(§5) FIG. 12 is a stripchart recording of the antimicrobial response curve of a four channeled expriment involving a clinical specimen of the non-hydrogenproducing, Gram-positive bacteria Staphylococcus epidermidis treated with 0.012, 0.5 and 1.0 mcg/ml of the antibiotic ampicillin as shown in curves B, C and D respectively. […]

[2] = system: E. coli (clinical); assay: as above; type: cell-based, Escherichia coli
Description: as §1, §2, §3, §4, §5

[3] = system: S. epidermidis (ATCC); assay: Electroanalytically determined MIC, gram-positive bacteria; type: cell-based, Staphylococcus epiderdimis ATCC 14990; details: Staphylococcus epidermidis
Description: as §1, §2, §3, §4, §5

[4] = system: E. coli (ATCC); assay: Electroanalytically determined MIC, gram-negative bacteria; type: cell-based, Escherichia coli, "Seattle Strain" ATCC 25922
Description: as §1, §2, §3, §4, §5

[5] = system: K. pneumoniae (clinical); assay: as above; type: cell-based, Klebsiella pneumoniae
Description: as §1, §2, §3
as §4, with “recorder. […]” for “recorder.”

[6] = system: S. epidermidis (clinical); assay: Electroanalytically determined MIC / antimicrobial response curve, gram-positive bacteria; type: cell-based, Staphylococcus epidermidis; details: for MIC: Staphylococcus epidermidis
Description: as §1, §2, §3, §4, §5

[7] = system: K. pneumoniae (ATCC); assay: Electroanalytically determined MIC / antimicrobial response curve, gram-negative bacteria; type: cell-based, Klebsiella pneumoniae ATCC 27736
Description: as §1, §2, §3, §4, §5

[8] = system: S. aureus (ATCC); assay: Electroanalytically determined MIC, gram-positive bacteria; type: cell-based, "Seattle Strain" ATCC 25923; details: Staphylococcus aureus
Description: as §1, §2, §3, §4, §5

[9] = system: S. aureus (clinical); assay: as above; type: cell-based; details: Staphylococcus aureus
Description: as §1, §2, §3, §4, §5

[10] = system: P. aeruginosa (ATCC); assay: Electroanalytically determined MIC, gram-negative bacteria; type: cell-based, Pseudomonas aeruginosa, ATCC 9721
Description: as §1, §2, §3, §4, §5

[11] = system: S. pyogenes (ATCC); assay: Electroanalytically determined MIC, gram-positive bacteria; type: cell-based, ATCC 10389; details: Streptococcus pyogenes, 24 h
Description: as §1, with “Schering. […]” for “Schering.”
as §4, with “Leads from the electrode were connected to a high impedance (greater than 10^8 ohms) potentiometer, or voltage following device, which in turn was connected to a strip chart recorder (Hewlett-Packard type 680M).” left out, “recorder. […]” for “recorder.”

[12] = system: S. pyogenes (clinical); assay: as above; type: cell-based; details: Streptococcus pyogenes, 24 h
Description: as §1, §2, §3, §4, §5

[13] = S. epidermidis (ATCC), TSB, 35° C., 24 hour test period, read-out: MIC
[14] = S. epidermidis (clinical), TSB, 35° C., 24 hour test period, read-out: MIC
[15] = S. aureus (ATCC), TSB, 35° C., 24 hour test period, read-out: MIC
[16] = S. aureus (clinical), TSB, 35° C., 24 hour test period, read-out: MIC
[17] = Pseudomonas aeruginosa, P. aeruginosa (clinical), TSB, 35° C., 24 hour test period, read-out: MIC
[18] = Pseudomonas aeruginosa, P. aeruginosa (ATCC), TSB, 35° C., 24 hour test period, read-out: MIC
[19] = Escherichia coli, E. coli (clinical), TSB, 35° C., 24 hour test period, read-out: MIC
[20] = Escherichia coli, E. coli (ATCC), TSB, 35° C., 24 hour test period, read-out: MIC
[21] = Klebsiella pneumoniae, K. pneumoniae (ATCC), TSB, 35° C., 24 hour test period, read-out: MIC

| Compound | MIC ([1]; Pseudomonas aeruginosa, 24 h) | MIC ([2]; Escherichia coli, 24 h) | MIC ([3]; 24 h) | MIC ([4]; Escherichia coli, 24 h) | MIC ([6]; 24 h) | MIC ([7]; Klebsiella pneumoniae, 24 h) | MIC ([8]; 24 h) | MIC ([9]; 24 h) | MIC ([10]; Pseudomonas aeruginosa, 24 h) | other results |
| --- | --- | --- | --- | --- | --- | --- | --- | --- | --- | --- |
| NC[C@H]1O[C@H](O[C@H]2[C@H](O)[C@@H](O[C@H]3O[C@H](CO)[C@@H](O)[C@H](N)[C@H]3O)[C@H](N)C[C@@H]2N)[C@H](O)[C@@H](O)[C@@H]1O [Kana, kanamycin] | 64 µg/mL | 4 µg/mL | 0.4 µg/mL | 3 µg/mL | 0.6 µg/mL | 3 µg/mL | 0.2 µg/mL | 0.5 to 1 µg/mL | 32 to 64 µg/mL | MIC ([5]; Klebsiella pneumoniae, 24 h): 4 µg/mL |
| COc1cccc(OC)c1C(=O)N[C@@H]1C(=O)N2[C@@H]1SC(C)(C)[C@@H]2C(=O)O [Meth, methicillin] | – | – | – | – | – | – | – | – | – | MIC [3, 13]: 0.5 to 1 µg/mL; MIC [6, 14]: 0.5 to 1 µg/mL; MIC [8, 15]: 0.7 µg/mL; MIC [9, 16]: 0.7 µg/mL |
| NC[C@H]1O[C@H](O[C@H]2[C@H](O)[C@@H](O[C@H]3O[C@H](CO)[C@@H](O)[C@H](N)[C@H]3O)[C@H](N)C[C@@H]2N)[C@H](N)C[C@@H]1O [Tobra, tobramycin] | – | – | – | – | – | – | – | – | – | MIC [1, 17]: 8 µg/mL; MIC [10, 18]: 4 µg/mL |
| CC1(C)S[C@@H]2[C@H](NC(=O)C(C(=O)O)c3ccccc3)C(=O)N2[C@H]1C(=O)O (stereo partly shown) [Carb, carbenicillin] | – | – | – | – | – | – | – | – | – | MIC [1, 17]: 64 µg/mL; MIC [2, 19]: 5 µg/mL; MIC [4, 20]: 4 µg/mL; MIC ([5]; Klebsiella pneumoniae, K. pneumoniae (clinical), TSB, 35° C., 24 hour test period, read-out: MIC): > 128 µg/mL; MIC [7, 21]: > 128 µg/mL; MIC [10, 18]: 64 µg/mL |
| gentamicin | – | – | – | – | – | – | – | – | – | MIC ([1]; P. aeruginosa (clinical), TSB, 35° C., 24 hour test period): 4.0 µg/mL; MIC ([2]; E. coli (clinical), TSB, 35° C., 24 hour test period): 1.0 µg/mL; MIC ([4]; E. coli (ATCC), TSB, 35° C., 24 hour test period): 0.5 µg/mL; MIC ([5]; K. pneumoniae (clinical), TSB, 35° C., 24 hour test period): 0.5 µg/mL; MIC ([7]; K. pneumoniae (ATCC), TSB, 35° C., 24 hour test period): 0.5 µg/mL; MIC ([10]; P. aeruginosa (ATCC), TSB, 35° C., 24 hour test period): 2.0 µg/mL |
| CCOc1ccc2ccccc2c1C(=O)N[C@@H]1C(=O)N2[C@@H]1SC(C)(C)[C@@H]2C(=O)O [Naf, sodium nafcillin] | – | – | – | – | – | – | – | – | – | MIC [3, 13]: 0.5 to 1 µg/mL; MIC [6, 14]: 0.5 to 1 µg/mL; MIC [8, 15]: 0.5 µg/mL; MIC [9, 16]: 0.5 µg/mL |
| CC1(C)S[C@@H]2[C@H](NC(=O)[C@H](N)c3ccccc3)C(=O)N2[C@H]1C(=O)O [Amp, ampicillin] | > 128 µg/mL | – | – | – | – | – | – | – | > 128 µg/mL | MIC [2, 19]: 6 µg/mL; MIC [3, 13]: 1 µg/mL; MIC [4, 20]: 4 µg/mL; growth inhibition (antimicrobial response curve, FIG. 12) ([6]; S. epidermidis clinical specimen, 0.012, 0.5 and 1.0 mcg/ml): increasingly inhibited; MIC [6, 14]: 0.8 to 1 µg/mL; MIC [7, 21]: 32 µg/mL; MIC [8, 15]: 0.12 to 0.6 µg/mL; MIC [9, 16]: 0.12 µg/mL |
| [H]/N=C(/N)N[C@H]1[C@H](O)[C@@H](O)[C@H](O[C@@H]2O[C@@H](C)[C@](O)(C=O)[C@H]2O[C@@H]2O[C@@H](CO)[C@H](O)[C@@H](O)[C@@H]2NC)[C@@H](N/C(N)=N\[H])[C@@H]1O [Strep, streptomycin sulfate] | – | 9 µg/mL | 4 µg/mL | 9 µg/mL | 4 to 6 µg/mL | 5 to 6 µg/mL | 8 µg/mL | 8 µg/mL | – | MIC ([5]; Klebsiella pneumoniae, 24 h): 6 µg/mL; MIC [11]: 0.1 µg/mL; MIC [12]: 0.1 µg/mL |
| CN(C)[C@@H]1C(=O)C(C(N)=O)=C(O)[C@@]2(O)C(=O)C3=C(O)c4c(O)cccc4[C@@](C)(O)[C@H]3C[C@@H]12 [Tetra, tetracycline] | 64 µg/mL | 4 µg/mL | 1 to 2 µg/mL | 1 µg/mL | 2 µg/mL | 5 to 6 µg/mL | 2 µg/mL | 2 µg/mL | 64 µg/mL | MIC ([5]; Klebsiella pneumoniae, 24 h): 5 to 6 µg/mL |
| CC(=O)OCC1=C(C(=O)O)N2C(=O)[C@@H](NC(=O)Cc3cccs3)[C@H]2SC1 [Ceph, cephalothin] | > 360 µg/mL | 9 µg/mL | 0.1 µg/mL | 8 µg/mL | 0.5 to 1 µg/mL | 1 µg/mL | 0.15 to 0.2 µg/mL | 0.8 to 1.6 µg/mL | > 360 µg/mL | growth inhibition (antimicrobial response curve, FIG. 13) ([7]; K. pneumoniae ATCC, 0.3, 0.4, 0.5, 1.0 and 2.0 mcg/ml): increasingly inhibited |
| CN[C@H](CC(C)C)C(=O)N[C@H]1C(=O)N[C@@H](CC(N)=O)C(=O)N[C@H]2C(=O)N[C@H]3C(=O)N[C@H](C(=O)N[C@H](C(=O)O)c4cc(O)cc(O)c4-c4cc3ccc4O)[C@H](O)c3ccc(c(Cl)c3)Oc3cc2cc(c3O[C@@H]2O[C@H](CO)[C@@H](O)[C@H](O)[C@H]2O[C@H]2C[C@](C)(N)[C@H](O)[C@H](C)O2)Oc2ccc(cc2Cl)[C@H]1O [Vanco, vancomycin hydrochloride] | – | – | 1.5 µg/mL | – | 2 to 3 µg/mL | – | 1 µg/mL | 2 µg/mL | – | MIC [11]: 0.1 to 0.5 µg/mL; MIC [12]: 0.5 µg/mL |
| CC1(C)S[C@@H]2[C@H](NC(=O)Cc3ccccc3)C(=O)N2[C@H]1C(=O)O [Pen G, penicillin G potassium] | – | – | 0.08 to 0.1 µg/mL | – | 0.1 µg/mL | – | 0.05 µg/mL | 0.05 µg/mL | – | – |

Source: US4246343A, “Microbial detection and enumeration method and apparatus” (University of Virginia and National Aeronautics & Space …, priority 1979, dated 1981)
